The values below are quoted from earlier work in PubChem BioAssay AID1259409 (Chemical Carcinogenesis Research Information System (CCRIS), 2018).

This series deals with rodent chemically induced tumor inhibition, incidence and multiplicity. Nature of the series: CCRIS tumor inhibitor studies. The conditions noted are these: Route [Inhibitor]: ORAL.

Consider `Cc1c(C)c2c(c(C)c1O)CC[C@@](C)(CCC[C@H](C)CCC[C@H](C)CCCC(C)C)O2`, for which, for the setting “Carcinogen: N-BIS(2-HYDROXYPROPYL)NITROSAMINE, 53609-64-6, Dose [Inhibitor]: 0, 1% IN DIET FOR 30 WK BEGINNING POST CARCINOGEN TREATMENT (STUDY DURATION: 32 WK), Species: RAT, Strain/Sex: F344/MALE, Target Tissue: Type of Lesion: LUNG: ADENOMA, Dose [Carcinogen]: 0.1% IN DRINKING WATER FOR 2 WK, Promoter: NONE USED”, the outcome is given as 100%, 100%, 0, not significant. Also, the “tumour outcome (control, treated, inhibition, significance)” value (Carcinogen: N-BIS(2-HYDROXYPROPYL)NITROSAMINE, 53609-64-6, Dose [Inhibitor]: 0, 1% IN DIET FOR 30 WK BEGINNING POST CARCINOGEN TREATMENT (STUDY DURATION: 32 WK), Species: RAT, Strain/Sex: F344/MALE, Target Tissue: Type of Lesion: THYROID: ADENOMA, Dose [Carcinogen]: 0.1% IN DRINKING WATER FOR 2 WK, Promoter: NONE USED) is on record as 5%, 10%, -100%, not calculated; the “tumour outcome (control, treated, inhibition, significance)” value (Carcinogen: N-BIS(2-HYDROXYPROPYL)NITROSAMINE, 53609-64-6, Dose [Inhibitor]: 0, 1% IN DIET FOR 30 WK BEGINNING POST CARCINOGEN TREATMENT (STUDY DURATION: 32 WK), Species: RAT, Strain/Sex: F344/MALE, Target Tissue: Type of Lesion: THYROID: CARCINOMA, Dose [Carcinogen]: 0.1% IN DRINKING WATER FOR 2 WK, Promoter: NONE USED) is 20%, 10%, 50%, not calculated; the “tumour outcome (control, treated, inhibition, significance)” value (Carcinogen: N-BIS(2-HYDROXYPROPYL)NITROSAMINE, 53609-64-6, Dose [Inhibitor]: 0, 1% IN DIET FOR 30 WK BEGINNING POST CARCINOGEN TREATMENT (STUDY DURATION: 32 WK, Species: RAT, Strain/Sex: F344/MALE, Target Tissue: Type of Lesion: LUNG: CARCINOMA, Dose [Carcinogen]: 0.1% IN DRINKING WATER FOR 2 WK, Promoter: NONE USED) is given as 45%, 10%, 78%, p<0.05; the “tumour outcome (control, treated, inhibition, significance)” value (Carcinogen: N-METHYL-N'-NITRO-N-NITROSOGUANIDINE, 70-25-7, N-ETHYL-N-HYDROXYETHYLNITROSAMINE, 13147-25-6, N-METHYLBENZYLNITROSAM, Carcinogen: N-METHYL-N'-NITRO-N-NITROSOGUANIDINE, 70-25-7, N-ETHYL-N-HYDROXYETHYLNITROSAMINE, 13147-25-6, N-METHYLBENZYLNITROSAM, Dose [Inhibitor]: 0, 1% IN DIET FOR 36 WK (STUDY DURATION: 36 WK), Species: RAT, Strain/Sex: F344/MALE, Target Tissue: Type of Lesion: KIDNEY: RENAL CELL TUMOR, Dose [Carcinogen]: 100 MG/KG BW MNNG ONCE, 750 MG/KG BW EHEN ONCE, 0.5 MG/KG BW MBN TWICE, 40 MG/KG BW DMH 4 TIMES, 0.05% DBN IN DRINKING W, Promoter: NONE USED) is given as 8/18 (44%), 5/18 (28%), 36%, not calculated; the “tumour outcome (control, treated, inhibition, significance)” value (Carcinogen: N-METHYL-N-NITROSOUREA, 684-93-5, Dose [Inhibitor]: 0, 3.349 UMOL/G IN DIET FOR DURATION OF STUDY (STUDY DURATION: 19 WK), Species: RAT, Strain/Sex: SPRAGUE-DAWLEY/FEMALE, Target Tissue: Type of Lesion: MAMMARY GLAND: TUMOR, Dose [Carcinogen]: 30 MG/KG IN ACIDIFIED SALINE ONCE, Promoter: NONE USED) is reported as 60%, 50%, 17%, not significant; the “tumour outcome (control, treated, inhibition, significance)” value (Carcinogen: N-METHYLBENZYLNITROSAMINE, 937-40-6, Dose [Inhibitor]: 30, 142 IU IN BASAL DIET BEGINNING 1 WK POST CARCINOGEN TREATMENT (STUDY DURATION: 26 WK), Species: MOUSE, Strain/Sex: C57BL/FEMALE, Target Tissue: Type of Lesion: ESOPHAGUS: TUMORS, Dose [Carcinogen]: 0.2 MG/KG BW IN CORN OIL 3/WK FOR 3 WK, Promoter: NONE USED) is reported as 6/15 (40%), 3/15 (20%), 50%, p<0.05. In addition, the “tumour outcome (control, treated, inhibition, significance)” value is 12/15 (80%), 11/16 (69%), 14%, not significant (Carcinogen: N-METHYLBENZYLNITROSAMINE, 937-40-6, Dose [Inhibitor]: 30, 142 IU IN BASAL DIET BEGINNING 1 WK POST CARCINOGEN TREATMENT TO MICE INFECTED WITH LP-BM5 MURINE RETROVIRUS (STUDY, Species: MOUSE, Strain/Sex: C57BL/FEMALE, Target Tissue: Type of Lesion: ESOPHAGUS: TUMORS, Dose [Carcinogen]: 0.2 MG/KG BW IN CORN OIL 3/WK FOR 3 WK, Promoter: NONE USED); 10/17 (59%), 6/16 (38%), 36%, p<0.05 (Carcinogen: N-NITROSOMETHYLBENZYLAMINE, 937-40-6, Dose [Inhibitor]: 20, 142 MG/KG DIET BEGINNING POST CARCINOGEN TREATMENT AND CONTINUING FOR DURATION OF STUDY (STUDY DURATION: 23 WK), Species: MOUSE, Strain/Sex: C57BL/FEMALE, Target Tissue: Type of Lesion: ESOPHAGUS: TUMOR, Dose [Carcinogen]: 0.2 MG/KG BW IN CORN OIL 3/WK FOR 3 WK, Promoter: ETHANOL, 64-17-5); 8/15 (53%), 4/15 (27%), 49%, not significant (Carcinogen: NONE USED, Dose [Inhibitor]: 25.5, 550.9 MG/KG IN DIET FOR 40 WK (STUDY DURATION: 40 WK), Species: MOUSE, Strain/Sex: STRAIN-A/MALE, Target Tissue: Type of Lesion: LUNG: TUMOR, Promoter: NONE USED); 100%, 80%, 20%, not calculated (Carcinogen: URETHANE, 51-79-6, Dose [Inhibitor]: 25, 500 MG/KG IN DIET FOR THE DURATION OF STUDY (STUDY DURATION: 26 WK), Species: MOUSE, Strain/Sex: DDY/MALE, Target Tissue: Type of Lesion: LUNG: TUMOR, Dose [Carcinogen]: 750 MG/KG BW ONCE, Promoter: NONE USED).
